Measured values reported in patent US20150086719A1, “USE OF […] MARINE WOODBORERS” (Janssen Pharmaceutica, NV, priority 2012, published 2015).

How the values were obtained:
[1] = system: Teredo navalis; experiment: Marine field test according to EN 275: rating of attack on tralopyril impregnated Scots pine sapwood by T. navalis; format: in vivo; parameters: key: 0: No destruction No visible tunnel or destruction by marine organisms; Little destruction Tunnels are one or a few number and up to cover 15% of total sample area; Moderate destruction Tunnels cover between 15-25% of total sample area; 3: Violent destruction Tunnels cover between 25-50% of total sample area; 4: Fully destruction Tunnels covered more than 50% of total sample area; —: some samples were destroyed the second year (indicated by ‘-’ in Table 1); conditions: single wood samples; tralopyril retention 1087 g/m^3 (solvent based formulation, methanol); 1 year in seawater
Procedure: (§1) The effectiveness to reduce the presence of marine woodborers in wood situated in a marine environment was determined using the guidelines and recommendations in EN 275: 1992—wood preservatives—determination of the protective effectiveness against marine woodborers.
(§2) Wood Material The wood material used for both control groups (untreated) and test groups was Scots pine sapwood (Pinus sylvestris L.). The size of the wood samples was 25×70×200 mm and all pine specimens were pure sapwood and free from defects.
Full cell Impregnation Procedure: • place specimens into a treatments vessel (e.g. an exsiccator) • pull vacuum until 7 hPa is reached and hold said vacuum for 15 minutes • flood specimens under vacuum with treatment solution until the specimens are completely immersed • release vacuum and make sure that samples stay completely immersed while ambient pressure presses treatment solution into the specimens • leave specimens for further 2 hours immersed in the treatment solution • subsequently remove the specimens from the treatment solution, drain drip off solution for some minutes and place the specimens container on inert supports. • keep specimens in the closed container for 3 days (over weekend) for fixation, subsequently open the lid every day a bit more and remove it completely after 4 days • dry specimens in the open container at room temperature further 3 days […]

[2] = system: Limnoria lignorum; experiment: Marine field test according to EN 275: rating of attack on tralopyril impregnated Scots pine sapwood by Limnoria l.; format: in vivo; parameters: key to Rating of attack by Limnoria l. 1st year / Rating of attack by Limnoria l. 2nd year: 0: No destruction No visible tunnel or destruction by marine organisms; Little destruction Tunnels are one or a few number and up to cover 15% of total sample area; Moderate destruction Tunnels cover between 15-25% of total sample area; 3: Violent destruction Tunnels cover between 25-50% of total sample area; 4: Fully destruction Tunnels covered more than 50% of total sample area; —: some samples were destroyed the second year (indicated by ‘-’ in Table 1); conditions: for Rating of attack by Limnoria l. 1st year, average / Rating of attack by Limnoria l. 2nd year, average: average of samples, scale 0-4; for Rating of attack by Limnoria l. 1st year, average / Rating of attack by Limnoria l. 1st year: 1 year in seawater; for Rating of attack by Limnoria l. 2nd year, average / Rating of attack by Limnoria l. 2nd year: 2 years in seawater; for Rating of attack by Limnoria l. 1st year / Rating of attack by Limnoria l. 2nd year: single wood samples
Procedure: as §1, §2
Full cell Impregnation Procedure: • place specimens into a treatments vessel (e.g. an exsiccator) • pull vacuum until 7 hPa is reached and hold said vacuum for 15 minutes • flood specimens under vacuum with treatment solution until the specimens are completely immersed • release vacuum and make sure that samples stay completely immersed while ambient pressure presses treatment solution into the specimens • leave specimens for further 2 hours immersed in the treatment solution • subsequently remove the specimens from the treatment solution, drain drip off solution for some minutes and place the specimens container on inert supports. • keep specimens in the closed container for 3 days (over weekend) for fixation, subsequently open the lid every day a bit more and remove it completely after 4 days • dry specimens in the open container at room temperature further 3 days
1a) Water Dilutable Formulation (Emulsifiable Concentrate)
Tralopyril dissolved in methanol (1600 ppm and 400 ppm).
1a) water dilutable formulation : 228 g and 846 g a.i./ m^3
1b) solvent based formulation : 1087 g a.i./ m^3
Bay (Gullmar fjord) outside the Kristineberg Marine Research Station, 100 km north of Gothenburg, Sweden.
Temperature and salinity of water: Temperature varies between (18-22)° C. in the summer and −1.5° C. in mid-winter. Salinity varies between 26 g/kg and 34 g/kg. Good oxygen level due to a strong water flow.
Borer activity: there is borer activity all around the year. […] The criterion for failure due to Teredo attack (tunnels covering more than 50% of the specimen area as it appears on the X-ray film) is often fulfilled already within 6 months for untreated control specimens. Maximum “service” life of untreated controls is approximately 1.5 years, after which the samples are often broken to pieces by the autumn storms.
Specimens were hung on nylon-bars (diameter =24 mm) of two ladder-like rigs placed on the sea bottom at 6±0.4 m depth at low tide. The test rigs have heavy concrete foundations and each rig was kept upright by a 50 cm diameter buoy. As a result of the arrangement, the specimens are located at depths varying from 4 m to 6.5 m below water surface during the exposure period.
Gribbles: Limnoria lignorum (present but not very active)

[3] = tralopyril retention 1087 g/m^3
[4] = tralopyril retention 228 g/m^3 (water dilutable formulation)
[5] = tralopyril retention 846 g/m^3 (water dilutable formulation)
[6] = tralopyril retention 1087 g/m^3 (solvent based formulation, methanol)

Structure (SMILES): N#Cc1c(-c2ccc(Cl)cc2)[nH]c(C(F)(F)F)c1Br [tralopyril, 4-bromo-2-(4-chlorophenyl)-5-(trifluoromethyl)-1H-pyrrole-3-carbonitrile]
- Rating of attack by T. navalis 1st year [1]: 0
- Rating of attack by Limnoria l. 1st year, average ([2]; tralopyril retention 228 g/m^3): 0.0
- Rating of attack by Limnoria l. 2nd year, average ([2]; tralopyril retention 228 g/m^3): 0.0
- Rating of attack by Limnoria l. 1st year, average ([2]; tralopyril retention 846 g/m^3): 0.0
- Rating of attack by Limnoria l. 2nd year, average ([2]; tralopyril retention 846 g/m^3): 0.0
- Rating of attack by Limnoria l. 1st year, average [2, 3]: 0.0
- Rating of attack by Limnoria l. 2nd year, average [2, 3]: 0.0
- Rating of attack by Limnoria l. 1st year [2, 4]: 0
- Rating of attack by Limnoria l. 2nd year [2, 4]: 0
- Rating of attack by Limnoria l. 1st year [2, 5]: 0
- Rating of attack by Limnoria l. 2nd year [2, 5]: 0
- Rating of attack by Limnoria l. 1st year [2, 6]: 0
- Rating of attack by Limnoria l. 2nd year [2, 6]: 0
